Test results taken from patent US20240270749A1, “1,2,4-TRIAZOLO[1,5-A]PYRIMIDINE-BASED SLC16A3 INHIBITORS AND THEIR THERAPEUTIC USE” (CEMM - FORSCHUNGSZENTRUM FÜR MOLEKULARE MEDIZIN GMBH, priority 2021, published 2024).
Entries after “also recorded” stand apart in the source; their conditions may differ. Like-named read-outs stand apart in the source and are kept apart here.

Key:
[1] = system: HAP1 SLC16A3^−/− cells; test: Synthetic lethality guided viability screening (CellTiter Glo), HAP1 SLC16A3-/- cells (SLC16A1-dependent); format: cell-based; details: for IC50: Homo sapiens, HAP1, 72 hours, Cell titer glo, from dose response curves, read-out: HAP1 SLC16A31^−/− IC50
Protocol: (§1) Compounds were printed to individual wells of 384 well plates (Corning) with Echo acoustic liquid dispenser (Labcyte). HAP1 cells were seeded using a dispenser (Thermo Fischer Scientific) in density 1,000 cells per well in 50 μl. As controls, DMSO or Bortezomib treatments were used. Viability of cells was assessed after 72 hours with CellTiter Glo (Promega) and % of controls were calculated based on RLU values in DMSO (100%) and Bortezomib (0%) wells. First screening was performed in 10 μM final concentration. Second screening was performed in technical duplicates, in 4 point dose response setting, with concentrations ranging from 13-0.5 μM. Third screening was performed in technical triplicates in 6 point dose response setting, with concentrations ranging from 27-0.11 μM. LAMA84 cells were used in density 3,000 cells per well. AZD3965, BAY-8002, syrosingopine and compounds obtained from third party vendors were tested in 96 well plates, with 2,500 cells per well with manual seeding and treatment. Compound efficacy was determined either by comparing % of control, or by IC50 estimation based on dose response curves (calculated with R package drc, or with GraphPad Prism).
(§2) Table 1: Results of synthetic lethality guided chemical screening assay. HAP1 WT, HAP1 SLC16A1^−/− or HAP1 SLC16A3^−/− cell lines were treated with presented compounds for 72 hours and viability was determined by Cell titer glo assay (Promega). Data are presented either as a percentage of viability in HAP1 SLC16A1^−/− cells compared to controls (DMSO=100% and Bortezomib=0%) upon single dose treatment (10 μM) or as IC50 values obtained from dose response curves.

[2] = system: HAP1 dependent on SLC16A7; test: Viability of HAP1 cells dependent on SLC16A7; format: cell-based; details: SLC16A7 overexpressed in HAP1 SLC16A3^−/−, SLC16A1 knocked out
Text: To test this, the inventors overexpressed SLC16A7 or SLC16A8 in HAP1 SLC16A3^−/− cells and knocked out SLC16A1 using CRISPR/Cas9. […]

[3] = system: HAP1 WT cells; test: Synthetic lethality guided viability screening (CellTiter Glo), HAP1 WT cells; format: cell-based; details: Homo sapiens, 72 hours, Cell titer glo, from dose response curves
Protocol: as §1, §2

[4] = system: HAP1 SLC16A1^−/− cells; test: Synthetic lethality guided viability screening (CellTiter Glo), HAP1 SLC16A1-/- cells (SLC16A3-dependent); format: cell-based; details: for IC50 / viability at 10 µM: Homo sapiens; for IC50: from dose response curves; for viability at 10 µM: read-out: HAP1 SLC16A1^−/− % of viability
Protocol: as §1, §2

[5] = system: HAP1 SLC16A1^−/− cells; test: Growth curve, HAP1 SLC16A1-/- cells; format: cell-based; details: different concentrations; counted 24 h, 48 h, 72 h
Protocol: Cells were seeded in 6 well plate in density of 15,000 cells per well in the presence of different concentrations of tested compounds in DMSO, or matching DMSO concentrations. Cells were washed with PBS, harvested with trypsin and counted with CASY counter (Roche) 24 h, 48 h and 72 h after the seeding. Cell number obtained at 24 h was set as 0, for each time point and concentration two wells were harvested and counted.

[6] = system: NCIH358 cells; test: Lactate Glo lactate accumulation, NCIH358 lung cancer cells; format: cell-based; details: 10 μM, 6 hours
Protocol: (§3) Protocol for lactate glo was modified based on Benjamin D et al., Cell Reports, 2018, 25(11):3047-3058.e4. Cells were seeded in 96 well plate in density 30,000 cells per well. Next day cells were treated with tested compounds, AZD3965 and syrosingopine (all in final concentration of 10 μM) or DMSO. After 6 hours of incubation at 37° C., cells were washed twice with PBS, lysed with 0.2N HCl, neutralized with 1M Tris-base (Sigma) and incubated for 1 hour at RT with lactate glo reagents (Promega). Lactate accumulation was then estimated based on luminescence signal.

[7] = system: NCIH441 cells; test: Lactate Glo lactate accumulation, NCIH441 lung cancer cells; format: cell-based; details: 10 μM, 6 hours
Protocol: as §3

[8] = target: T1, SLC16A3 (Homo sapiens, UniProt O15427); test: Cellular Thermal Shift Assay (CETSA), HEK293T lysates with HIBIT-tagged SLC16A3; format: binding; details: HEK293T lysate, HIBIT-tagged SLC16A3, split-nano luciferase readout
T1 construct: expressed in transfected cells; lysate supernatant used
T1 sequence (O15427 1-465): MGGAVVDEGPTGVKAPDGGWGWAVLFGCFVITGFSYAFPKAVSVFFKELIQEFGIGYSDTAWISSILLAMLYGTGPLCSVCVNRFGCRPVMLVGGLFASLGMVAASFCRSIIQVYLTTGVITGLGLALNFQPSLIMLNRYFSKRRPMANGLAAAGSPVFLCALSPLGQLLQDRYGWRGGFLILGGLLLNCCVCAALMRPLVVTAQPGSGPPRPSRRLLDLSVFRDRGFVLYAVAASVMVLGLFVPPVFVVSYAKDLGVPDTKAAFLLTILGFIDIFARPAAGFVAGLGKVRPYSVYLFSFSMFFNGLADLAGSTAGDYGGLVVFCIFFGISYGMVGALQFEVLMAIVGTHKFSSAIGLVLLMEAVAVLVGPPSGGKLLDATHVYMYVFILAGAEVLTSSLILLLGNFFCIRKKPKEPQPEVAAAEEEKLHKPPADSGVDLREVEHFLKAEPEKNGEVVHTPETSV
Protocol: HEK293T cells with stable expression of HIBIT-tagged SLC16A3 were lysed as described in Hashimoto M et al., ACS Chemical Biology, 2018, 13(6):1480-86. Lysates were then centrifugated at 14,000 RPM, 20 min at 4° C. Supernatant were next incubated with tested compounds or DMSO on ice for 1 hour. After that samples were aliquoted to PCR strips, heated in gradient thermocycler for 6 min and let cool down at room temperature (RT) for 3 min. Samples were then centrifugated at 14,000 RPM, 40 min at 4° C. and protein abundance in supernatants was determined using HIBIT lytic detection system (Promega) in 384 well plate. Reagents for HIBIT detection were diluted in lysis buffer (Hashimoto M et al., loc. cit.) instead of buffer provided with kit. All measurements were done in technical triplicate.

[9] = system: HAP1 SLC16A1^−/− cells; test: Lactate Glo lactate accumulation, HAP1 SLC16A1-/- cells; format: cell-based; details: 10 μM, 6 hours
Protocol: as §3

[10] = system: HAP1 SLC16A3^−/− cells; test: Lactate Glo lactate accumulation, HAP1 SLC16A3-/- cells; format: cell-based; details: 10 μM, 6 hours
Protocol: as §3

[11] = system: cells dependent on SLC16A3 in HAP1 and LAMA84 cell lines; test: Selectivity counter screen, HAP1 and LAMA84 cell line panel; format: cell-based; details: panel incl. LAMA84 sgRen/sgSLC16A1/sgSLC16A3, HAP1 dependent on SLC16A7 or SLC16A8, rescue lines
Protocol: as §1
To get further insights into the selectivity and mode of action of these hits, the inventors created a selection of compounds with similar structure to their hits from the whole library and tested those further. […]

[12] = HAP1, single dose 10 μM, 72 hours, Cell titer glo, compared to controls DMSO=100%, Bortezomib=0%

| SMILES | IC50 [3] | IC50 [1] | IC50 ([4]; HAP1, 72 hours, Cell titer glo) | also measured |
| --- | --- | --- | --- | --- |
| Cc1[nH]nc(C(F)(F)F)c1Cc1sc2c(c1C(=O)N1C[C@](C)(O)CO1)c(=O)n(C)c(=O)n2C(C)C [AZD3965, reference compound] | – | – | – | effect on viability of HAP1 SLC16A3^−/− cells (in words) [1]: reduced viability; killing of HAP1 cells dependent on SLC16A7 (in words) [2]: can be killed |
| O=C(Nc1ccccc1C(=O)O)c1cc(S(=O)(=O)c2ccccc2)ccc1Cl [BAY-8002, reference compound] | – | – | – | effect on viability of HAP1 SLC16A3^−/− cells (in words) [1]: reduced viability; killing of HAP1 cells dependent on SLC16A7 (in words) [2]: can be killed |
| Cc1ccc(NC(=O)CCc2c(C)nc3nc(C(F)(F)F)nn3c2C)cc1 [Compound 1] | > 30 µM | > 30 µM | 3.32 µM | – |
| Cc1cc(C)cc(NC(=O)CCc2c(C)nc3nc(C(F)(F)F)nn3c2C)c1 [Compound 2] | > 30 µM | > 30 µM | 4.13 µM | – |
| CSc1nc2nc(C)c(CCC(=O)Nc3ccc(C)cc3)c(C)n2n1 [Compound 3] | > 30 µM | > 30 µM | 2.34 µM | – |
| CSc1nc2nc(C)c(CCC(=O)Nc3cc(C)cc(C)c3)c(C)n2n1 [Compound 4] | > 30 µM | > 30 µM | 1.83 µM | – |
| Cc1cc(NC(=O)CCc2c(C)nc3nc(C(F)(F)F)nn3c2C)ccc1N1CCN(C)CC1 [Compound 5] | > 30 µM | > 30 µM | 5.87 µM | – |
| Cc1nc2nc(C(F)(F)F)nn2c(C)c1CCC(=O)Nc1ccc(S(=O)(=O)N2CCCC2)cc1 [Compound 6] | > 30 µM | > 30 µM | 0.41 µM | – |
| Cc1nc2nc(C(F)(F)F)nn2c(C)c1CCC(=O)Nc1ccncc1 [Compound 7] | > 30 µM | > 30 µM | 11.2 µM | – |
| Cc1nc2nc(C(F)(F)F)nn2c(C)c1CCC(=O)Nc1cnc2ccccc2c1 [Compound 8] | > 30 µM | > 30 µM | 0.25 µM | growth rate / proliferation of HAP1 SLC16A1^−/− cells [5]: confirmed the growth reducing effect; also recorded: slowed down the proliferation in a dose-dependent manner; lactate accumulation in NCIH358 cells [6]: confirmed the lactate accumulation in both cell lines; lactate accumulation in NCIH441 cells [7]: confirmed the lactate accumulation in both cell lines |
| Cc1nc2ncnn2c(C)c1CCC(=O)Nc1ccc(S(=O)(=O)N2CCCCCC2)cc1 [Compound 9] | > 30 µM | > 30 µM | 1.98 µM | – |
| CCOc1ccc(NC(=O)CCc2c(C)nc3ncnn3c2C)cc1 [Compound 10] | > 30 µM | > 30 µM | 7.07 µM | viability at 10 µM [4, 12]: 70.8% |
| Cc1nc2nc(C)c(CCC(=O)Nc3ccc(Br)c(C)c3)c(C)n2n1 [Compound 11] | – | – | – | viability at 10 µM [4, 12]: 33.7% |
| CCc1cccc(NC(=O)CCc2c(C)nc3nc(C)nn3c2C)c1 [Compound 12] | – | – | – | viability at 10 µM [4, 12]: 36.4% |
| Cc1nc2nc(C)c(CCC(=O)Nc3ccc(C)c(C)c3)c(C)n2n1 [Compound 13] | – | – | – | shift in melting temperature of SLC16A3 (CETSA) [8]: showed a shift in melting temperature of SLC16A3; lactate accumulation in HAP1 SLC16A1^−/− cells [9]: lactate accumulation comparable to control (syrosingopine); also recorded: significant lactate accumulation was observed; lactate accumulation in HAP1 SLC16A3^−/− cells [10]: no accumulation was observed; also recorded: did not affect lactate accumulation; viability at 10 µM [4, 12]: 37%; selective killing in HAP1 and LAMA84 cell line panel (in words) [11]: selectively kill only cells dependent on SLC16A3 |
| CCc1ccc(NC(=O)CCc2c(C)nc3nc(C)nn3c2C)cc1 [Compound 14] | – | – | – | viability at 10 µM [4, 12]: 37.5% |
| CCOc1ccc(NC(=O)CCc2c(C)nc3nc(C)nn3c2C)cc1 [Compound 15] | – | – | – | viability at 10 µM ([4]; HAP1, 72 h): 38.5% |
| Cc1nc2nc(C)c(CCC(=O)Nc3ccc(Br)cc3)c(C)n2n1 [Compound 16] | – | – | – | viability at 10 µM [4, 12]: 38.7% |
| COc1ccc(NC(=O)CCc2c(C)nc3nc(C)nn3c2C)cc1 [Compound 17] | – | – | – | viability at 10 µM ([4]; HAP1, 72 h): 44.4% |
| Cc1nc2nc(C(F)(F)F)nn2c(C)c1CCC(=O)Nc1cccnc1 [Compound 18] | > 30 µM | > 30 µM | 8.41 µM | – |
| Cc1nc2nc(C(F)(F)F)nn2c(C)c1CCC(=O)Nc1ccccc1 [Compound 19] | > 30 µM | > 30 µM | 8.94 µM | – |
| CCOC(=O)Oc1c(OC)cc(C(=O)O[C@@H]2C[C@@H]3CN4CCc5c([nH]c6cc(OC)ccc56)[C@H]4C[C@@H]3[C@H](C(=O)OC)[C@H]2OC)cc1OC [syrosingopine, reference compound] | – | – | – | effect on viability of HAP1 SLC16A1^−/− cells (in words) [4]: decreased viability |
